In paper PMC7432809, “Antimicrobial Activity of Small Synthetic Peptides Based on the Marine Peptide Turgencin A: Prediction of Antimicrobial Peptide Sequences in a Natural Peptide and Strategy for Optimization of Potency” (International Journal of Molecular Sciences, 2020):
Converted amounts (≈) assume the structure as drawn. Where no end group is shown, it is not given here.

Columns and labels:
Test in all cases: microbe, parasite or virus in culture
Type in all cases: cell-based
[1] = system: Escherichia coli (ATCC 25922)
Experimental: (§1) Two strains of G- bacteria, P. aeruginosa (Pa, ATCC 27853) and E. coli (Ec, ATCC 25922), were also used. Cultures stored at -80 °C in glycerol were transferred to Müller–Hinton plates (MH, Difco Laboratories, Detroit, MI, USA) and incubated for 24 h at 35 °C. Colonies of each strain were transferred to 5 mL liquid MH medium and left shaking (600 rpm) at room temperature overnight. An aliquot of actively growing bacteria (20 µL) was inoculated in 5 mL MH medium and left shaking for 2 h at room temperature. In order to have a sensitive bioassay, the bacterial cultures were diluted with medium to only 2.5–3 × 10^4 bacteria/mL and an aliquot of 50 µL was added to each well in 96 microwell plates (Thermo Fisher Scientific, Roskilde, Denmark) preloaded with peptide solution (50 µL). The antibacterial assays were performed as previously described. The microtiter plates were incubated for 24 h at 35 °C with optical density (595 nm) recorded every hour using an Envision 2103 multilabel reader, controlled by a Wallac Envision manager (PerkinElmer, Waltham, MA, USA). The minimum inhibitory concentration (MIC) was defined as the sample concentration showing an optical density less than 10% of the negative (growth) control, consisting of bacteria and MQ-H2O. Oxytetracycline (concentrations ranging from 20–0.02 µg/mL, Sigma-Aldrich) and indolicidin (concentration ranging from 200–0.2 µg/mL, Sigma-Aldrich) served as a positive (inhibition) control. The synthetic peptides were tested for antibacterial activity in concentrations ranging from 250 to 0.5 µg/mL in two-fold dilutions. All tests were performed in triplicates.

[2] = system: Pseudomonas aeruginosa (ATCC 27853)
Experimental: as §1

[3] = system: Bacillus subtilis (ATCC 23857)
Experimental: (§2) The synthesized peptides were screened for antibacterial activity against five strains of G+ bacteria: B. subtilis (Bs, ATCC 23857), C. glutamicum (Cg, ATCC 13032), S. aureus (Sa, ATCC 9144), Micrococcus luteus (Ml), B. megaterium (Bm) (the last two were obtained from professor Olaf B. Styrvold, UiT The Arctic University of Norway).
as §1

[4] = system: Corynebacterium glutamicum (ATCC 13032)
Experimental: as §2, §1

Bacillus megaterium = system: Bacillus megaterium
Experimental: as §2, §1

[5] = system: Staphylococcus aureus (ATCC 9144)
Experimental: as §2, §1

Micrococcus luteus = system: Micrococcus luteus
Experimental: as §2, §1

Aureobasidium pullulans = system: Aureobasidium pullulans
Experimental: (§3) StAMP-1–11 were screened for antifungal activity against C. albicans (Ca, ATCC 10231), A. pullulans (Ap) and Rhodotorula sp. (Rh) (the last two were obtained from professor Arne Tronsmo, The Norwegian University of Life Sciences, Ås, Norway). The antifungal assay was performed as previously described with a few modifications. Briefly, fungal spores were dissolved in potato dextrose broth (Difco Laboratories) with 2% D(+)-glucose (Merck, Darmstadt, Germany) to a concentration of 4 × 10^5 spores/mL. The spores (50 µL) were inoculated on 96 microwell plates (Thermo Fisher Scientific) containing the synthetic peptides (50 µL) and controls (water or antibiotic). The peptides were diluted in MQ-H2O at final concentrations ranging from 250–3.9 µg/mL in two-fold serial dilutions. Triclosan (Sigma-Aldrich, Steinheim, Germany) was used as a positive (antifungal) control (32–0.25 µg/mL), and MQ-H2O as a negative (growth) control. Cultures were grown in room temperature for 24 h (Ca) and 48 h (Ap and Rh). Growth inhibition was determined by measuring OD values at 600 nm by a microplate reader (Synergy H1 Hybrid Multi-Mode Reader, BioTek, Winooski, VT, USA). […] All experiments were done in triplicate.

[6] = system: Candida albicans (ATCC 10231)
Experimental: as §3

Rhodotorula sp. = system: Rhodotorula sp.
Experimental: as §3

[7] = potato dextrose broth with 2% glucose, room temperature 48 h, OD 600 nm, >90% inhibition, triplicate

Row | Compound | Antimicrobial Activity (MIC) Ec ([1]; ATCC 25922, 24 h) | Antimicrobial Activity (MIC) Pa ([2]; ATCC 27853, 24 h) | Antimicrobial Activity (MIC) Bs ([3]; ATCC 23857, 24 h) | Antimicrobial Activity (MIC) Cg ([4]; ATCC 13032, 24 h) | Antimicrobial Activity (MIC) Bm (Bacillus megaterium; Bacillus, 24 h) | Antimicrobial Activity (MIC) Sa ([5]; ATCC 9144, 24 h) | Antimicrobial Activity (MIC) Ml (Micrococcus luteus; 24 h) | Antimicrobial Activity (MIC) Ap (Aureobasidium pullulans; 48 h) | Antimicrobial Activity (MIC) Ca ([6]; ATCC 10231, 24 h) | Antimicrobial Activity (MIC) Rh (Rhodotorula sp.; 48 h) | other results
1 | CC[C@H](C)[C@H](N)C(=O)N[C@@H](CC(C)C)C(=O)N1CCC[C@H]1C(=O)N[C@@H](Cc1c[nH]c2ccccc12)C(=O)N[C@@H](CCCCN)C(=O)N[C@@H](Cc1c[nH]c2ccccc12)C(=O)N1CCC[C@H]1C(=O)N[C@@H](Cc1c[nH]c2ccccc12)C(=O)N[C@@H](Cc1c[nH]c2ccccc12)C(=O)N1CCC[C@H]1C(=O)N[C@@H](Cc1c[nH]c2ccccc12)C(=O)N[C@@H](CCCNC(=N)N)C(=O)N[C@@H](CCCNC(=N)N)C(N)=O [Indolicidin, reference compound] | – | – | – | – | – | – | – | – | – | – | Antimicrobial Activity (MIC) Ec ([1]; Escherichia coli, MH medium, 24 h at 35 °C, OD 595 nm <10% of growth control, triplicates): 25.0 µg/mL; Antimicrobial Activity (MIC) Pa ([2]; Pseudomonas aeruginosa, MH medium, 24 h at 35 °C, OD 595 nm <10% of growth control, triplicates): >250 µg/mL; Antimicrobial Activity (MIC) Bs ([3]; Bacillus subtilis, MH medium, 24 h at 35 °C, OD 595 nm <10% of growth control, triplicates): 6.3 µg/mL; Antimicrobial Activity (MIC) Cg ([4]; Corynebacterium glutamicum, MH medium, 24 h at 35 °C, OD 595 nm <10% of growth control, triplicates): 1.6 µg/mL; Antimicrobial Activity (MIC) Bm (Bacillus megaterium; Bacillus megaterium, MH medium, 24 h at 35 °C, OD 595 nm <10% of growth control, triplicates): 3.1 µg/mL; Antimicrobial Activity (MIC) Sa ([5]; Staphylococcus aureus, MH medium, 24 h at 35 °C, OD 595 nm <10% of growth control, triplicates): 12.5 µg/mL; Antimicrobial Activity (MIC) Ml (Micrococcus luteus; Micrococcus luteus, MH medium, 24 h at 35 °C, OD 595 nm <10% of growth control, triplicates): 12.5 µg/mL; Antimicrobial Activity (MIC) Ap (Aureobasidium pullulans; [7]): 25.0 µg/mL; Antimicrobial Activity (MIC) Ca ([6]; potato dextrose broth with 2% glucose, room temperature 24 h, OD 600 nm, >90% inhibition, triplicate): 100 µg/mL; Antimicrobial Activity (MIC) Rh (Rhodotorula sp.; [7]): 25.0 µg/mL
2 | CN(C)[C@@H]1C(O)=C(C(N)=O)C(=O)[C@@]2(O)C(O)=C3C(=O)c4c(O)cccc4[C@@](C)(O)[C@H]3[C@H](O)[C@@H]12 [Oxytetracycline, reference compound] | – | – | – | – | – | – | – | – | – | – | MIC ([1]; ATCC25922, Escherichia coli, MH medium, 24 h at 35 °C, OD 595 nm <10% of growth control, triplicates, read-out: Antimicrobial Activity (MIC) Ec): 1.3 µg/mL (≈ 2.82 µM); MIC ([2]; ATCC27853, Pseudomonas aeruginosa, MH medium, 24 h at 35 °C, OD 595 nm <10% of growth control, triplicates, read-out: Antimicrobial Activity (MIC) Pa): 2.5 µg/mL (≈ 5.43 µM); MIC ([3]; ATCC23857, Bacillus subtilis, MH medium, 24 h at 35 °C, OD 595 nm <10% of growth control, triplicates, read-out: Antimicrobial Activity (MIC) Bs): 10 µg/mL (≈ 21.7 µM); MIC ([4]; ATCC13032, Corynebacterium glutamicum, MH medium, 24 h at 35 °C, OD 595 nm <10% of growth control, triplicates, read-out: Antimicrobial Activity (MIC) Cg): 0.2 µg/mL (≈ 0.434 µM); MIC (Bacillus megaterium; Priestia megaterium, Bacillus megaterium, MH medium, 24 h at 35 °C, OD 595 nm <10% of growth control, triplicates, read-out: Antimicrobial Activity (MIC) Bm): 0.6 µg/mL (≈ 1.3 µM); MIC ([5]; ATCC9144, Staphylococcus aureus, MH medium, 24 h at 35 °C, OD 595 nm <10% of growth control, triplicates, read-out: Antimicrobial Activity (MIC) Sa): 0.04 µg/mL (≈ 0.0869 µM); MIC (Micrococcus luteus; Micrococcus luteus, MH medium, 24 h at 35 °C, OD 595 nm <10% of growth control, triplicates, read-out: Antimicrobial Activity (MIC) Ml): 1.3 µg/mL (≈ 2.82 µM)
3 | Oc1cc(Cl)ccc1Oc1ccc(Cl)cc1Cl [Triclosan, reference compound] | – | – | – | – | – | – | – | – | – | – | MIC (Aureobasidium pullulans; Aureobasidium pullulans, 48 h, read-out: Antimicrobial Activity (MIC) Ap): 3.1 µg/mL; MIC ([6]; Candida albicans, ATCC10231, 24 h, read-out: Antimicrobial Activity (MIC) Ca): 3.1 µg/mL; MIC (Rhodotorula sp.; Rhodotorula, 48 h, read-out: Antimicrobial Activity (MIC) Rh): 1.6 µg/mL
4 | GKKPGGWKAK-NH2 [StAMP-1] | >250 µg/mL | >250 µg/mL | >250 µg/mL | 250 µg/mL | 250 µg/mL | >250 µg/mL | >250 µg/mL | >250 µg/mL | >250 µg/mL | >250 µg/mL | –
5 | GKKWGGWKAK-NH2 [StAMP-2] | >250 µg/mL | >250 µg/mL | 125 µg/mL | 31.3 µg/mL | 3.9 µg/mL | >250 µg/mL | 250 µg/mL | 62.5 µg/mL | 125 µg/mL | 62.5 µg/mL | –

Further lines, with some results ahead:

Row | Antimicrobial Activity (MIC) Ec ([1]; ATCC 25922, 24 h) | Antimicrobial Activity (MIC) Pa ([2]; ATCC 27853, 24 h) | Antimicrobial Activity (MIC) Bs ([3]; ATCC 23857, 24 h) | Antimicrobial Activity (MIC) Cg ([4]; ATCC 13032, 24 h) | Antimicrobial Activity (MIC) Bm (Bacillus megaterium; Bacillus, 24 h) | Antimicrobial Activity (MIC) Sa ([5]; ATCC 9144, 24 h) | Antimicrobial Activity (MIC) Ml (Micrococcus luteus; 24 h) | Antimicrobial Activity (MIC) Ap (Aureobasidium pullulans; 48 h) | Antimicrobial Activity (MIC) Ca ([6]; ATCC 10231, 24 h) | Antimicrobial Activity (MIC) Rh (Rhodotorula sp.; 48 h) | Compound | other results
6 | >250 µg/mL | >250 µg/mL | 125 µg/mL | 3.9 µg/mL | 3.9 µg/mL | >250 µg/mL | 125 µg/mL | 62.5 µg/mL | 62.5 µg/mL | 31.3 µg/mL | GKKPGWWKAK-NH2 [StAMP-4] | –
7 | >250 µg/mL | >250 µg/mL | >250 µg/mL | 15.6 µg/mL | 3.9 µg/mL | >250 µg/mL | 250 µg/mL | 62.5 µg/mL | 125 µg/mL | 62.5 µg/mL | GKKPWGWKAK-NH2 [StAMP-3] | –
8 | 62.5 µg/mL | >250 µg/mL | 3.9 µg/mL | 3.9 µg/mL | 1.0 µg/mL | 250 µg/mL | 62.5 µg/mL | 62.5 µg/mL | 62.5 µg/mL | 31.3 µg/mL | GKKWGWWKAK-NH2 [StAMP-6] | –
9 | 31.3 µg/mL | 250 µg/mL | 15.6 µg/mL | 2.0 µg/mL | 1.0 µg/mL | >250 µg/mL | 15.6 µg/mL | 31.3 µg/mL | 31.3 µg/mL | 15.6 µg/mL | GKKWWGWKAK-NH2 [StAMP-5] | –
10 | >250 µg/mL | >250 µg/mL | >250 µg/mL | 31.3 µg/mL | 7.8 µg/mL | >250 µg/mL | 62.5 µg/mL | 250 µg/mL | 125 µg/mL | 31.3 µg/mL | GRRPLLLRAR-NH2 [StAMP-11] | –
11 | 15.6 µg/mL | 31.3 µg/mL | 7.8 µg/mL | 7.8 µg/mL | 3.9 µg/mL | 62.5 µg/mL | 15.6 µg/mL | 62.5 µg/mL | 62.5 µg/mL | 15.6 µg/mL | GRRWWWWRAR-NH2 [StAMP-10] | –
